Tests used:
Assay type in all cases: cell-based
[1] = system: MDA-MB-231 cells; experiment: Tumor cell proliferation (Alamar Blue), MDA-MB-231; details: Homo sapiens, MDA-MB-231, 72 h
Experimental: (§1) Human tumor cells (e.g., HCT116 or MDA-MB-231 cells), are seeded in a Costar 96-well plate at 3.0×10^3 cells/well and grown in 150 μl of RPMI complete media (Invitrogen Corporation, Grand Island, N.Y.) containing 10% fetal bovine serum (Hyclone, Logan, Utah) at 37° C. for 16 h in an incubator with 5% CO2. To each well, 50 μl of additional growth media containing 40 μM to 18 nM concentrations of compound with 0.4% DMSO is added. Cells are grown for another 72 h at 37° C. with 5% CO2. 20 μl of Alamar Blue (Trek Diagnostic Systems, Inc., Cleveland, Ohio) reagent is added to each well and incubated for 3 h at 37° C. Plates are read in a SpectraMax Gemini (Molecular Devices, Calif.) with 544 nm excitation and 590 nm emission wavelength. IC50 values are determined by linear regression analysis of log drug concentration versus percent inhibition.

[2] = system: HCT116 cells; experiment: Tumor cell proliferation (Alamar Blue), HCT116; details: Homo sapiens, HCT-116, 72 h
Experimental: as §1

[3] = system: VEGF stimulated Phospho-ERK in HUVEC; experiment: Growth factor stimulated p-ERK assay in HUVECs (VEGF stimulation, ERK1/2 Bioplex); details: Homo sapiens, compound 2 hrs, then 50 ng/ml VEGF 10 min
Experimental: Growth Factor Stimulated p-ERK assay in HUVECs
Exponentially growing human endothelial HUVECs cells (human umbilical vein endothelial cells, cat# CC-2517, Cambrex, Walkersville, Md.) were seeded at twenty five thousand cells/well in 96 well plates in EBM-2 MV medium with growth factors (cat# CC-3202, Cambrex) and grown at 37° C. in 5% CO2. Sixteen hours post-plating, the cells were changed to serum-free medium (RPMI 1640 containing 0.1% BSA (bovine serum albumin) and compounds were added at different concentrations for 2 hrs, after which the cells were stimulated for 10 min with 50 ng/ml of either VEGF (vascular endothelial growth factor, Protein Sciences, Meriden, Conn.) or bFGF (basic fibroblast growth factor cat# PHG0026, Biosource International, Camarillo, Calif.). The rest of the assay was performed per manufacturer indications for the ERK½ Bioplex assay (cat#171-304004, Bio-Rad, Hercules, Calif.). After removing culture medium by aspiration, the cells were quickly rinsed with 100 μl of cell wash buffer A to stop treatment reaction. Eighty microliters of cell lysis buffer were then immediately added to each well of the 96 well plate which was put on ice. Cells in each well were lysed by pipetting up and down 5 times with a multi-channel pipet. The plate was then agitated on a microtiter plate shaker at 300 rpm for 20 min at 4° C. Cellular debris were pelleted by centrifugation at 4500 g for 15 min at 4° C. and the supernatant was collected. Forty five microliters of supernatant was diluted with an equal volume of Bio-Plex phosphoprotein assay Buffer B, The coupled and color coated beads were added into a 96 well filter plate, and the prepared lysates were added. The beads and lysate mixture was incubated at room temperature for 15-18 hrs. The following day, the plate was vacuum-filtered and then washed 3×. Twenty-five microliters of detection antibody solution were added to each well and the plate was then incubated for 30 min at room temperature. The plate was then vaccum-filtered and washed as described previously. Fifty microliters of streptavidin-PE solution was added to each well, the plate was incubated for 10 min at room temperature and then was then vaccum-filtered and washed as described above. One hundred twenty-five microliters of resuspension buffer was added to each well and data were acquired on the Luminex 100 instrument (Bio-Rad).

| SMILES | IC50 [1] | IC50 ([1]; bounds given in μM) | IC50 [2] | IC50 ([2]; bounds given in μM) | inhibition at 0.1 µM ([3]; @ 100 nM) | inhibition at 1 µM ([3]; @ 1 μM) |
| --- | --- | --- | --- | --- | --- | --- |
| Nc1ncnn2cc(-c3nc(CN4CCOCC4)co3)c(-c3ccc(NC(=O)Nc4cc(C(F)(F)F)ccc4F)cc3)c12 [Example 257, N-(4-{4-amino-6-[4-(morpholin-4-ylmethyl)-1,3-oxazol-2-yl]pyrrolo[2,1-f][1,2,4]triazin-5-yl}phenyl)-N′-[2-fluoro-5-(trifluoromethyl)phenyl]urea] | > 0.5 µM | < 1.5 µM | > 0.5 µM | < 1.5 µM | – | – |
| CNC(=O)c1cn2ncnc(N)c2c1-c1ccc(NC(=O)Nc2cc(C(C)(C)C)ccn2)cc1 [Example 73, 4-amino-5-[4-({[(4-tert-butylpyridin-2-yl)amino]carbonyl}amino)phenyl]-N-methylpyrrolo[2,1-f][1,2,4]triazine-6-carboxamide] | – | 1.5 to 5 µM | – | 1.5 to 5 µM | – | – |
| Cn1nc(C(C)(C)C)cc1NC(=O)Nc1ccc(-c2c(C(=O)NCC(F)(F)F)cn3ncnc(N)c23)cc1 [Example 94, 4-amino-5-[4-({[(3-tert-butyl-1-methyl-1H-pyrazol-5-yl)amino]carbonyl}amino)phenyl]-N-(2,2,2-trifluoroethyl)pyrrolo[2,1-f][1,2,4]triazine-6-carboxamide] | – | 1.5 to 5 µM | – | 5 to 10 µM | – | – |
| COCCOCc1cn2ncnc(N)c2c1-c1ccc(NC(=O)Nc2cc(C(C)(C)C)nn2-c2ccc(F)cc2)cc1 [Example 248, N-(4-{4-amino-6-[(2-methoxyethoxy)methyl]pyrrolo[2,1-f][1,2,4]triazin-5-yl}phenyl)-N′-[3-tert-butyl-1-(4-fluorophenyl)-1H-pyrazol-5-yl]urea] | > 0.5 µM | < 1.5 µM | – | 1.5 to 5 µM | – | – |
| CC(C)(CN1CCOCC1)NC(=O)c1cn2ncnc(N)c2c1-c1ccc(NC(=O)Nc2cc(C(F)(F)F)ccc2Cl)cc1 [Example 149, 4-amino-5-{4-[({[2-chloro-5-(trifluoromethyl)phenyl]amino}carbonyl)amino]phenyl}-N-(1,1-dimethyl-2-morpholin-4-ylethyl)pyrrolo[2,1-f][1,2,4]triazine-6-carboxamide] | > 0.5 µM | < 1.5 µM | – | 1.5 to 5 µM | – | – |
| CC(C)(C)c1ccnc(NC(=O)Nc2ccc(-c3c(C(=O)NC4CC4)cn4ncnc(N)c34)cc2)c1 [Example 76, 4-amino-5-[4-({[(4-tert-butylpyridin-2-yl)amino]carbonyl}amino)phenyl]-N-cyclopropylpyrrolo[2,1-f][1,2,4]triazine-6-carboxamide] | – | 1.5 to 5 µM | > 0.5 µM | < 1.5 µM | – | – |
| COCc1cn2ncnc(N)c2c1-c1ccc(NC(=O)Nc2cc(C(C)(C)C)nn2-c2ccc(F)cc2)cc1 [Example 217, N-{4-[4-amino-6-(methoxymethyl)pyrrolo[2,1-f][1,2,4]triazin-5-yl]phenyl}-N′-[3-tert-butyl-1-(4-fluorophenyl)-1H-pyrazol-5-yl]urea] | > 0.5 µM | < 1.5 µM | – | 1.5 to 5 µM | – | – |
| COCc1cn2ncnc(N)c2c1-c1ccc(NC(=O)Nc2cc(C(F)(F)F)ccc2F)c(F)c1 [Example 254, N-{4-[4-amino-6-(methoxymethyl)pyrrolo[2,1-f][1,2,4]triazin-5-yl]-2-fluorophenyl}-N′-[2-fluoro-5-(trifluoromethyl)phenyl]urea] | – | 1.5 to 5 µM | – | 1.5 to 5 µM | – | – |
| Nc1ncnn2cc(-c3nc(CO)co3)c(-c3ccc(NC(=O)Nc4cc(C(F)(F)F)ccc4F)cc3)c12 [Example 241, N-(4-{4-amino-6-[4-(hydroxymethyl)-1,3-oxazol-2-yl]pyrrolo[2,1-f][1,2,4]triazin-5-yl}phenyl)-N′-[2-fluoro-5-(trifluoromethyl)phenyl]urea] | – | 1.5 to 5 µM | > 0.5 µM | < 1.5 µM | – | – |
| CCOC(=O)c1coc(-c2cn3ncnc(N)c3c2-c2ccc(NC(=O)Nc3cc(C(F)(F)F)ccc3F)cc2)n1 [Example 237, ethyl 2-(4-amino-5-{4-[({[2-fluoro-5-(trifluoromethyl)phenyl]amino}carbonyl)amino]phenyl}pyrrolo[2,1-f][1,2,4]triazin-6-yl)-1,3-oxazole-4-carboxylate] | – | 1.5 to 5 µM | < 0.5 µM | – | – | – |

Further lines, with some results ahead:

| IC50 [1] | IC50 ([1]; bounds given in μM) | IC50 [2] | IC50 ([2]; bounds given in μM) | SMILES | inhibition at 0.1 µM ([3]; @ 100 nM) | inhibition at 1 µM ([3]; @ 1 μM) |
| --- | --- | --- | --- | --- | --- | --- |
| < 0.5 µM | – | > 0.5 µM | < 1.5 µM | Nc1ncnn2cc(-c3cnco3)c(-c3ccc(NC(=O)Nc4cc(C(F)(F)F)ccn4)cc3)c12 [Example 156, N-{4-[4-amino-6-(1,3-oxazol-5-yl)pyrrolo[2,1-f][1,2,4]triazin-5-yl]phenyl}-N′-[4-(trifluoromethyl)pyridin-2-yl]urea] | – | – |
| – | 1.5 to 5 µM | > 0.5 µM | < 1.5 µM | Nc1ncnn2cc(C(=O)NC3CC3)c(-c3ccc(NC(=O)Nc4cc(C(F)(F)F)ccc4F)cc3)c12 [Example 69, 4-amino-N-cyclopropyl-5-{4-[({[2-fluoro-5-(trifluoromethyl)phenyl]amino}carbonyl)amino]phenyl}pyrrolo[2,1-f][1,2,4]triazine-6-carboxamide] | – | – |
| – | 1.5 to 5 µM | > 0.5 µM | < 1.5 µM | CC(C)(C)c1cc(NC(=O)Nc2ccc(-c3c(C#N)cn4ncnc(N)c34)cc2)on1 [Example 161, N-[4-(4-amino-6-cyanopyrrolo[2,1-f][1,2,4]triazin-5-yl)phenyl]-N′-(3-tert-butylisoxazol-5-yl)urea] | – | – |
| – | 1.5 to 5 µM | – | 1.5 to 5 µM | CCOC(=O)c1coc(-c2cn3ncnc(N)c3c2-c2ccc(NC(=O)Nc3cc(C(F)(F)F)ccn3)cc2)n1 [Example 232, ethyl 2-(4-amino-5-{4-[({[4-(trifluoromethyl)pyridin-2-yl]amino}carbonyl)amino]phenyl}pyrrolo[2,1-f][1,2,4]triazin-6-yl)-1,3-oxazole-4-carboxylate] | – | – |
| – | 1.5 to 5 µM | – | 1.5 to 5 µM | Nc1ncnn2cc(CN3CCOCC3)c(-c3ccc(NC(=O)Nc4cc(C(F)(F)F)ccn4)cc3)c12 [Example 225, N-{4-[4-amino-6-(morpholin-4-ylmethyl)pyrrolo[2,1-f][1,2,4]triazin-5-yl]phenyl}-N′-[4-(trifluoromethyl)pyridin-2-yl]urea] | – | – |
| – | 5 to 10 µM | – | 5 to 10 µM | N#Cc1cn2ncnc(N)c2c1-c1ccc(NC(=O)Nc2ccnc(C(F)(F)F)c2)cc1 [Example 153, N-[4-(4-amino-6-cyanopyrrolo[2,1-f][1,2,4]triazin-5-yl)phenyl]-N′-[2-(trifluoromethyl)pyridin-4-yl]urea] | – | – |
| > 0.5 µM | < 1.5 µM | – | 1.5 to 5 µM | N#CCc1cn2ncnc(N)c2c1-c1ccc(NC(=O)Nc2cc(C(F)(F)F)ccn2)c(F)c1 [Example 255] | – | – |
| – | 1.5 to 5 µM | – | 1.5 to 5 µM | CNC(=O)c1cn2ncnc(N)c2c1-c1ccc(NC(=O)Nc2ccc(F)c(C(F)(F)F)c2)cc1 [Example 74, 4-amino-5-{4-[({[4-fluoro-3-(trifluoromethyl)phenyl]amino}carbonyl)amino]phenyl}-N-methylpyrrolo[2,1-f][1,2,4]triazine-6-carboxamide] | – | – |
| > 0.5 µM | < 1.5 µM | < 0.5 µM | – | Nc1ncnn2cc(C(=O)NCC(F)(F)F)c(-c3ccc(NC(=O)Nc4cc(C(F)(F)F)ccn4)cc3)c12 [Example 93, 4-amino-N-(2,2,2-trifluoroethyl)-5-{4-[({[4-(trifluoromethyl)pyridin-2-yl]amino}carbonyl)amino]phenyl}pyrrolo[2,1-f][1,2,4]triazine-6-carboxamide] | < 50% | > 50% |
